The numbers were not newly measured in patent US20230285278A1, “METHODS FOR TREATING CHRONIC RHINOSINUSITIS” (OptiNose, Inc., priority 2022, published 2023), which cites them from elsewhere.

Like-named read-outs stand apart in the source and are kept apart here.

As to `CCC(=O)O[C@]1(C(=O)SCF)[C@H](C)C[C@H]2[C@@H]3C[C@H](F)C4=CC(=O)C=C[C@]4(C)[C@@]3(F)[C@@H](O)C[C@@]21C` [Fluticasone propionate, S-(fluoromethyl) 6α,9-difluoro-11β,17-dihydroxy-16α-methyl-3oxoandrosta-1,4-diene-17β-carbothioate, 17-propionate], the Solubility entry is listed as “slightly soluble” (in 96% ethanol); “sparingly soluble” (in acetone); “sparingly soluble” (in dichloromethane); “freely soluble” (in dimethylformamide); “practically insoluble” (in water).
